The source of these data is patent publication US20230047816A1 (priority 2018, published 2023).

Counter-ions that a name gives are not always drawn. A value given as a limit tells only on which side of the number the result lay.

One test has as its system neurons. Nature of the test: Neuroprotection, protection factor, NMDA treatment. Format: cell-based. Particulars: Treatment NMDA 100 μM 10 minutes, then inhibitor 24 hours. As to the method: For NMDAR activation, neurons at 8 days in vitro were incubated 100 μM NMDA (plus 10 μM glycine) for 10 minutes. Neurons were then washed and further incubated in culture medium with the PFKFB3 inhibitors for 24 hours. For b-amyloid treatment, neurons at 8 days in vitro were incubated with […] b-amyloid plus the PFKFB3 inhibitors for 24 hours. The Protection factor was estimated as [AMC(beta-A)−AMC(DMSO)]/[AMC(beta-A)−AMC(Test article)] or [AMC(beta-A)−AMC(DMSO)]/[AMC(NMDA)−AMC(Test article)], where:
AMC(DMSO)—% dead neuron in case of DMSO treatment
AMC(NMDA)—% dead neuron in case of NMDA treatment
AMC(Test article)—% dead neuron in case of PFKFB3 inhibitors treatment.

The conditions of test [1]: reported in the literature; cited from earlier work.
In another test the target is PFKFB3 (Homo sapiens, UniProt Q16875). Particulars: reported in the literature; cited from earlier work.
The test system of another test is established tumors. The conditions noted are these: reported in the literature; cited from earlier work.
The test system of a further test is activated T-cells. Particulars: reported in the literature; cited from earlier work.
A further test concerns angiogenesis. Particulars: reported in the literature; cited from earlier work.
Test [2] concerns the target Recombinant full length human PFKFB3 (Homo sapiens, UniProt Q16875). Nature of the test: PFKFB3 kinase activity assay (ADP production, ADP-Glo). On the technique in general: ADP-Glo turns the ADP formed in a reaction into a luminescent signal.
The target of test [3] is Recombinant full length human PFKFB4 (Homo sapiens, UniProt Q16877). Nature of the test: PFKFB4 kinase activity assay (ADP production, ADP-Glo).
Experimental: Recombinant full length human PFKFB3 (or PFKFB4) protein purified from Sf9 baculoviral system was acquired from SignalChem (Cat. #P323-30G or P324-30G). ATP, Fructose-6-Phosphate and other chemicals were from Sigma-Aldrich. The kinase activity of the PFKFB3 (PFKFB4) protein was detected by measuring production of ADP from ATP in the presence of the Fructose-6-Phosphate substrate. The kinase reactions were assembled in 384 well plates in a total volume of 25 μL. Test compounds were serially diluted in DMSO. Reactions were set up by first mixing test compounds with enzyme and pre-incubating for 15 min. The ATP and Fructose-6-Phosphate substrates were next added to initiate the kinase reactions.
The compounds of invention listed below in this example were tested at various concentrations (which also added 1% DMSO from compounds, to the final solution) as described below. The kinase reactions were allowed to proceed for 1 h at room temperature. Aliquots of the reaction mixtures (5 μL) were transferred to fresh white 384 well plates and mixed with 5 μL of the ADP-Glo reagent (Promega), followed by incubation for 30 min. The luminescent Kinase Detection reagent was added (10 μL) and, following additional incubation for 15 min, the plates were read on luminescence plate reader (Analyst HT). Positive (100%-inhibition) and negative (0%-inhibition) control samples were assembled in each assay plate and were used to calculate percent inhibition values of test compounds. All experiments were performed in duplicate.
For a further test, the system named is MDA-MB-468. Nature of the test: Combination with anticancer agents, MDA-MB-468. The class given is cell-based. Particulars: Homo sapiens, anticancer agent alone. As to the method: (§1) All cells can be incubated in the plates overnight at 37° C., 5% 002 incubator with different medium.
The test system of a further test is T-47D. Nature of the test: Combination with anticancer agents, T-47D. Format: cell-based. Particulars: Homo sapiens, T47D, anticancer agent alone. Here is the method:
as §1

For another test, the system named is HUVEC spheroids. Nature of the test: VEGF-A induced sprouting, spheroid-based cellular angiogenesis assay. Format: cell-based. Particulars: Homo sapiens. Here is the method:
The effect of PFKFB3 inhibitors on VEGF-A induced sprouting of HUVECs in a spheroid-based cellular angiogenesis assay. Sunitinib was used as a control. The experiments were pursued in modification of the originally published protocol (Korff and Augustin: J Cell Sci 112: 3249-58, 1999). In brief, spheroids were prepared as described (Korff and Augustin: J Cell Biol 143:1341-52, 1998) by pipetting 500 HUVEC in a hanging drop on plastic dishes to allow overnight spheroid aggregation. 50 HUVEC spheroids were then seeded in 0.9 ml of a collagen gel and pipetted into individual wells of a 24 well plate to allow polymerization. The test compounds in combination with the growth factor VEGF-A at 25 ng/ml final assay concentration) were added after 30 min by pipetting 100 μl of a 10-fold concentrated working solution on top of the polymerized gel. Plates were incubated at 37° C. for 24 hours and fixed by adding 4% Roti-Histofix (Roth, Karlsruhe, Germany). Sprouting intensity of HUVEC spheroids treated with the growth factor and the inhibitors were quantitated by an image analysis system determining the cumulative sprout length per spheroid (CSL) using an inverted microscope and the digital imaging software NIS-Elements BR 3.0 (Nikon). The mean of the cumulative sprout length of 10 randomly selected spheroids was analyzed as an individual data point.

Recombinant full length human PFKFB4, sequence (Q16877 whole entry): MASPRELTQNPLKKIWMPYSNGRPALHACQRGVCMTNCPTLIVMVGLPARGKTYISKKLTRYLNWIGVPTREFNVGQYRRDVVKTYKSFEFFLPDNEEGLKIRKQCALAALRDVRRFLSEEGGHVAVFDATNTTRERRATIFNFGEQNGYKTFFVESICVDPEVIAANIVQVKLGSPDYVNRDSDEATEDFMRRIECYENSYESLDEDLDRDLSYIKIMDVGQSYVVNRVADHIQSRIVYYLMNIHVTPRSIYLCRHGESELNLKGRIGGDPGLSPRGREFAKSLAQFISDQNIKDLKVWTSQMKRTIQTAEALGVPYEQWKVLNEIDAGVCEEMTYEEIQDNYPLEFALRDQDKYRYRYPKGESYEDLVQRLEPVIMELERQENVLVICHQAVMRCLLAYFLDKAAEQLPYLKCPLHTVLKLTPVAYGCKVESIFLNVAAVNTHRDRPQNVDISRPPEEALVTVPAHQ
Recombinant full length human PFKFB3, sequence (Q16875 whole entry): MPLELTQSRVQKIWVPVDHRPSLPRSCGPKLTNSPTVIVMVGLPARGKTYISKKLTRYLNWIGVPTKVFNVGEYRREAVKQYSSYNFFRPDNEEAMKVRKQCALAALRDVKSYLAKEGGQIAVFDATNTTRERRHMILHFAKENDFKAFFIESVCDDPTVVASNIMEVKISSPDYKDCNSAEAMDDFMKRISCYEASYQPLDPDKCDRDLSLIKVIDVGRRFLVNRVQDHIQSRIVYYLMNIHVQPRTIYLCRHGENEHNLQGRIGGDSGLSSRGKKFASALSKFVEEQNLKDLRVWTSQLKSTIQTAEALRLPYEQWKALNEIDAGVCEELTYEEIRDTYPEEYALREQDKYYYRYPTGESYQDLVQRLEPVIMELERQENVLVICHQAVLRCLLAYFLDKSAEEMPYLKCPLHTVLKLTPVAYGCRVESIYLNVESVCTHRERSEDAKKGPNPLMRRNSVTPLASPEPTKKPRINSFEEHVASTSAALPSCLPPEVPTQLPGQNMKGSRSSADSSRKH
PFKFB3, sequence (Q16875 whole entry, species assumed): as the sequence (Q16875 whole entry) above

Turning to `CC(CN(C)C)OC(=O)c1ccc(-c2ccc(F)c(F)c2)cc1N1Cc2ccc(-c3cn[nH]n3)cc2C1=O` (stereo not shown), in the test with neurons, the Protection factors stood at 2.56.

For `O=C(OCC(O)CO)c1ccc(-c2ccc(F)c(F)c2)cc1N1Cc2ccc(-c3cn[nH]n3)cc2C1=O` (stereo not shown), the Protection factors with neurons is listed as 1.35.

Molecule `O=C1NCC(COC(=O)c2ccc(-c3ccc(F)c(F)c3)cc2N2Cc3ccc(-c4cn[nH]n4)cc3C2=O)O1` (stereo not shown) came in with a Protection factors in the test with neurons of 1.05.

With `O=C(/C=C/c1ccc2ccc(C(F)(F)F)cc2n1)c1ccncc1` [ACT-PFK-158, (E)-1-(pyridin-4-yl)-3-(7-(trifluoromethyl)quinolin-2-yl)prop-2-en-1-one], in test [1], the glucose uptake result is “reduce glucose uptake” and the “intracellular concentration of Fru-2,6-BP” value was “reduce intracellular concentration of Fru-2,6-BP”. In addition, at PFKFB3, the PFKFB3 inhibition result is reported as “inhibit PFKFB3”. The “growth of established tumors in vivo” value in the test with established tumors is listed as “reduce growth of established tumors in vivo”.

Turning to `O=C(C=Cc1cccnc1)c1ccncc1` [Compound 3PO, 3-(3-pyridinyl)-1-(4-pyridinyl)-2-propen-1-one], the “proliferation of activated T-cells” value with activated T-cells was “inhibit proliferation of activated T-cells”. Besides, in the test with angiogenesis, the angiogenesis result is “inhibit angiogenesis”. Further, in test [1], the glucose uptake entry is “reduce glucose uptake” and the “intracellular concentration of Fru-2,6-BP” value was “reduce intracellular concentration of Fru-2,6-BP”. The PFKFB3 inhibition entry at PFKFB3 is “inhibit PFKFB3”. For the same molecule, the “growth of established tumors in vivo” value with established tumors was “reduce growth of established tumors in vivo”.

In the case of `O=C(O)c1ccc(-c2ccc(F)c(F)c2)cc1N1C(=O)c2ccc(-c3c[nH]nn3)cc2C1=O` [Compound 82, 3′,4′-Difluoro-3-[1,3-dioxo-5-(1H-[1,2,3]triazol-4-yl)-1,3-dihydroisoindol-2-yl]biphenyl-4-carboxylic Acid], the IC50 in test [2] and in [3] was under 500 nM each time.

Turning to `O=C(O)c1ccc2c(c1)C(=O)N(c1ccc(-c3ccccc3)cc1C(=O)O)C2=O` [Compound 134, 2-(3-Carboxybiphenyl-4-yl)-1,3-dioxo-2,3-dihydro-1H-isoindole-5-carboxylic acid], the IC50 in [2] and in [3] was under 500 nM each time.

In the case of `O=C(O)c1ccc2c(c1)C(=O)N(c1cc(-c3ccc(F)c(F)c3)ccc1C(=O)O)C2=O` [Compound 138, 2-(4-Carboxy-3′,4′-difluoro[1,1′-biphenyl]-3-yl)-1,3-dioxo-2,3-dihydro-1H-isoindole-5-carboxylic acid], the IC50 in [2] and in [3] was under 500 nM throughout.

`O=C(O)c1ccc2c(c1)C(=O)N(c1cc(-c3ccc(Cl)c(F)c3)ccc1C(=O)O)C2=O` [Compound 143, 2-(4-Carboxy-4′-chloro-3′-fluoro[1,1′-biphenyl]-3-yl)-1,3-dioxo-2,3-dihydro-1H-isoindole-5-carboxylic acid]: the IC50 in test [2] and in test [3] was under 500 nM each time.

As for `O=C(O)c1cc2c(cc1O)C(=O)N(c1cc(-c3ccc(F)c(F)c3)ccc1C(=O)O)C2=O` [Compound 144a, 2-(4-Carboxy-3′,4′-difluoro[1,1′-biphenyl]-3-yl)-6-hydroxy-1,3-dioxo-2,3-dihydro-1H-isoindole-5-carboxylic acid], the IC50 in test [2] and in [3] was under 500 nM each time.

In the case of `O=C(O)c1ccc(-c2ccc(F)c(F)c2)cc1N1C(=O)c2cc(Cl)c(-c3cnn[nH]3)cc2C1=O` [Compound 144b, 3-[5-Chloro-1,3-dioxo-6-(1H-1,2,3-triazol-5-yl)-2,3-dihydro-1H-isoindol-2-yl]-3′,4′-difluoro[1,1′-biphenyl]-4-carboxylic Acid], the IC50 in [2] and in [3] was under 500 nM each time.

For `O=C(O)c1ccc(-c2ccccc2)cc1N1C(=O)c2cc(Cl)c(-c3cnn[nH]3)cc2C1=O` [Compound 144c, 3-[5-Chloro-1,3-dioxo-6-(1H-1,2,3-triazol-5-yl)-2,3-dihydro-1H-isoindol-2-yl][1,1′-biphenyl]-4-carboxylic Acid], the IC50 in [2] and in [3] was under 500 nM in each case.

Take `COc1cccc2c1C(=O)c1c(O)c3c(c(O)c1C2=O)C[C@@](O)(C(=O)CO)C[C@@H]3O[C@H]1C[C@H](N)[C@H](O)[C@H](C)O1` [Doxorubicin, Doxorubicin Hydrochloride]: the IC50 (usually the midpoint of a concentration-inhibition curve) with MDA-MB-468 was 70 nM.

For the molecule `O=C(c1cc(Cc2n[nH]c(=O)c3ccccc23)ccc1F)N1CCN(C(=O)C2CC2)CC1` [Olaparib], the 50% inhibitory concentration (IC50) in the test on T-47D came to 38600 nM.

Regarding `CC(=O)O[C@H]1C(=O)[C@@]2(C)[C@H]([C@H](OC(=O)c3ccccc3)[C@]3(O)C[C@H](OC(=O)[C@H](O)[C@@H](NC(=O)c4ccccc4)c4ccccc4)C(C)=C1C3(C)C)[C@]1(OC(C)=O)CO[C@@H]1C[C@@H]2O` [Paclitaxel], in the test on MDA-MB-468, the IC50 came out at 10 nM.

In the case of `CCN(CC)CCNC(=O)c1c(C)[nH]c(/C=C2\C(=O)Nc3ccc(F)cc32)c1C` [Sunitinib, reference compound], in the test with HUVEC spheroids (HUVEC, positive control, read-out: maximal effect (inhibition of vessel sprouting)), the Emax was found to be 100%. Also, the EC50 (usually the concentration needed to bring the measured effect to its halfway point) with HUVEC spheroids (3D HUVEC model, VEGF-A 25 ng/ml, 24 hours, read-out: EC50 of inhibition of vessel sprouting) was 100 nM.

Turning to `CCOC(=O)c1ccc(-c2ccc(F)c(F)c2)cc1N1Cc2ccc(-c3cnn[nH]3)cc2C1=O` [compound 166, ethyl 3′,4′-difluoro-3-[1-oxo-6-(1H-1,2,3-triazol-5-yl)-2,3-dihydro-1H-isoindol-2-yl][1,1′-biphenyl]-4-carboxylate], the IC50 in [2] and in test [3] was under 20000 nM throughout.
